Source: a compilation of properties of binary mixtures (doi:10.1021/acs.jpcb.8b11892)

Assay: xn = mol fraction of the nth substance listed
Settings: 101 kPa

O + CCOS(=O)(=O)[O-].CC[n+]1ccn(C)c1
x2 = 0
Settings | viscosity [mPa·s]
293.15 K | 0.97
298.15 K | 0.87
303.15 K | 0.78
313.15 K | 0.64

CCOS(=O)(=O)[O-].CC[n+]1ccn(C)c1 + O
Settings | electrical conductivity, 298.15 K [S/m] | electrical conductivity, 313.15 K [S/m] | viscosity, 293.15 K [mPa·s] | viscosity, 298.15 K [mPa·s] | viscosity, 303.15 K [mPa·s] | viscosity, 313.15 K [mPa·s]
x1 = 0.001 | 0.29 | 0.39 | 0.99 | – | 0.81 | 0.66
x1 = 0.003 | – | – | 1.04 | – | 0.84 | –
x1 = 0.004 | 1.1 | 1.5 | 1.07 | 0.97 | 0.87 | 0.71
x1 = 0.006 | 1.5 | 2 | 1.14 | 1.02 | 0.91 | 0.74
x1 = 0.008 | 1.9 | – | 1.2 | 1.07 | 0.96 | –
x1 = 0.013 | 2.5 | – | 1.34 | 1.19 | 1.06 | –
x1 = 0.019 | 2.9 | – | 1.54 | 1.36 | 1.21 | –
x1 = 0.032 | 3.7 | 5.1 | 1.93 | 1.7 | 1.5 | 1.2
x1 = 0.047 | – | 5.7 | 2.48 | – | – | 1.51
x1 = 0.071 | 4.1 | 5.8 | 3.42 | 2.97 | 2.6 | 2.03
x1 = 0.103 | 3.7 | 5.4 | 4.8 | 4.14 | 3.59 | 2.77
x1 = 0.151 | 3.2 | – | – | 6.06 | 5.22 | –
x1 = 0.229 | 2.5 | 3.7 | 11 | 9.33 | 7.98 | 6
x1 = 0.303 | 2 | 3 | 15.2 | 12.9 | 10.9 | 8.15
x1 = 0.473 | 1.2 | 1.9 | 27.4 | 22.9 | 19.3 | 14.1
x1 = 0.588 | 0.92 | – | 39.5 | 32.7 | 27.2 | –
x1 = 0.642 | 0.81 | – | 46.7 | 38.3 | 31.7 | –
x1 = 1 | 0.4 | 0.73 | 122 | 95.5 | 75.4 | 49.4

CC[n+]1ccn(C)c1.O=S(=O)([O-])C(F)(F)F + O
Settings | electrical conductivity, 298.15 K [S/m] | electrical conductivity, 313.15 K [S/m] | viscosity, 293.15 K [mPa·s] | viscosity, 298.15 K [mPa·s] | viscosity, 303.15 K [mPa·s] | viscosity, 313.15 K [mPa·s]
x1 = 0.001 | 0.28 | 0.37 | 1.01 | 0.9 | 0.81 | 0.67
x1 = 0.002 | 0.66 | 0.93 | 1.03 | 0.92 | 0.83 | 0.69
x1 = 0.004 | 1 | – | – | 0.96 | 0.86 | –
x1 = 0.005 | – | 1.8 | 1.11 | – | 0.88 | 0.72
x1 = 0.008 | 1.7 | 2.3 | 1.16 | 1.03 | – | 0.75
x1 = 0.012 | – | 3.1 | 1.26 | – | 0.99 | 0.82
x1 = 0.017 | – | – | 1.38 | – | – | –
x1 = 0.029 | 3.6 | – | – | 1.47 | 1.31 | –
x1 = 0.041 | – | 5.6 | – | – | 1.57 | 1.26
x1 = 0.064 | – | 6.4 | 2.48 | – | 1.92 | 1.52
x1 = 0.094 | 4.8 | 6.6 | 3.21 | 2.81 | 2.47 | 1.96
x1 = 0.137 | – | – | 4.24 | – | – | –
x1 = 0.216 | 3.9 | 5.7 | 6.17 | 5.37 | 4.71 | 3.69
x1 = 0.391 | 2.8 | 4.1 | 10.9 | 9.43 | – | 6.41
x1 = 0.463 | 2.4 | 3.4 | – | 11.8 | 10.3 | 7.95
x1 = 0.512 | 2.1 | 3.1 | 15.5 | 13.4 | 11.7 | 9.02
x1 = 0.73 | 1.5 | 2.2 | 27.3 | 23.3 | 20 | 15
x1 = 1 | 0.91 | 1.4 | 52.4 | 43.8 | 36.7 | 26.6
